The source of these data is patent US12258360B2, “Compositions and methods for treatment of anticancer-drug resistant cancers” (THE GEORGE WASHINGTON UNIVERSITY, priority 2020, dated 2025).

Data set [1] concerns the target T1, And-1 (Homo sapiens, UniProt O75717).
T1 sequence (O75717 1-1129): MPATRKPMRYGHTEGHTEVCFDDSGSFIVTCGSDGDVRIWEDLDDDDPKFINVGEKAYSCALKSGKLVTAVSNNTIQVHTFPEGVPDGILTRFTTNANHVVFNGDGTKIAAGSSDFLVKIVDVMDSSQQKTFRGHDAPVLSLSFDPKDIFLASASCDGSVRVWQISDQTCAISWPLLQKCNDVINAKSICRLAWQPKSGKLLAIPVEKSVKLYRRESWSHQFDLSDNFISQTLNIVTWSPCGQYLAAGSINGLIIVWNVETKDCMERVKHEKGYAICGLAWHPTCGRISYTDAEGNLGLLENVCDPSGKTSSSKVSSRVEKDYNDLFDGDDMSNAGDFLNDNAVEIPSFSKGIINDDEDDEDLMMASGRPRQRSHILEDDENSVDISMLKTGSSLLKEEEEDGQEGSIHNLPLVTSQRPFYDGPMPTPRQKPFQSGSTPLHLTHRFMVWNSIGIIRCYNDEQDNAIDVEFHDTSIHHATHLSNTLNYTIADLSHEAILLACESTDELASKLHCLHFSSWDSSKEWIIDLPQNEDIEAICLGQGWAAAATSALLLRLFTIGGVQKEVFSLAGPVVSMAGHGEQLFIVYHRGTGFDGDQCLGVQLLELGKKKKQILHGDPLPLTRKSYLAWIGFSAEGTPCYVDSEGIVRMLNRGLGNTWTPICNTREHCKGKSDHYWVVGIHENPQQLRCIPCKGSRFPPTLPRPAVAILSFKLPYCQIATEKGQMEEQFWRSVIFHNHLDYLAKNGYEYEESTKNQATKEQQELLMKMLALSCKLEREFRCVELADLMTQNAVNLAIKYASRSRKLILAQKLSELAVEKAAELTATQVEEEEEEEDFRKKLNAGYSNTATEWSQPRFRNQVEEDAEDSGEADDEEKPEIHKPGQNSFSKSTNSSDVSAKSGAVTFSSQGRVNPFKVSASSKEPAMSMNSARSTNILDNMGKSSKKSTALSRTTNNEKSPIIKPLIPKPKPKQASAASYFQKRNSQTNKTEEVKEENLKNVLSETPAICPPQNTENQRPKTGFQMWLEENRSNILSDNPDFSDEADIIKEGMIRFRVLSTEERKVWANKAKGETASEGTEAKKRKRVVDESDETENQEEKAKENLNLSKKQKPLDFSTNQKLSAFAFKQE
Nature of the data set: immunoblot analysis of And-1 expression in IGROV1 cells. In kind it is cell-based. Also noted: endogenous in cells; host or cells: IGROV1 CR. The procedure:
The high IC50 of resveratrol compromises its potential clinical application; therefore, resveratrol was used as a lead compound to screen 12 analogs of resveratrol for potent compounds that can inhibit And-1 (FIG. 14). […] To perform immunoblot analyses, cells were first treated with increasing concentrations of the 12 analogs. After treatment, the cells were harvested and then lysed with RIPA buffer protease inhibitor and phosphatase inhibitor cocktail. Protein concentration was determined by the BCA protein assay. Equal amounts of whole cell lysates were separated on sodium dodecyl sulfate polyacrylamide gel electrophoresis (SDS-PAGE) and transferred onto nitrocellulose membranes. Membranes were then incubated in blocking solution (5% non-fat milk in 20 mM TRIS-HCl, 150 mM NaCl, 0.1% Tween-20) (TBST), followed by incubation with the indicated antibodies at 4° C. overnight. The membranes were then washed in TBST and incubated with HRP-conjugated secondary antibodies for 1 hour at room temperature (21° C.±2° C.). Antibody detection was performed with an enhanced chemiluminescence reaction.

The subject of data set [2] is NCI 60 tumor cell lines. Nature of the data set: NCI 60 tumor cell lines growth assay. It counts as cell-based. Here is the method: To test this hypothesis, inhibition of CH3 on cancer cells was evaluated by using NCI 60 tumor cell lines.
The subject of data set [3] is IGROV1 xenograft. It counts as in vivo, mice. Here is the method:
To evaluate the potency of And-1 inhibitors in vivo, IGROV1 or MCF7 cells were subcutaneously implanted into nude mice to form ovarian or breast tumors, respectively. In brief, 5-6 week-old female BALB/c athymic nude mice (CByJ.Cg-Foxn1nu/J, weighting 20-25 grams) were inoculated subcutaneously by injecting the OC cells, cisplatin resistant OC cells or breast cancer cells suspended in 100 μl ice-cold Matrigel/PBS (1:1, V:V; 5×10^6/mouse) into the dorsal flank of each mouse. When the average tumor volume reached 100-150 mm^3, the mice were randomized into subsequent experiment groups. For tumors treated with CH3 only, CH3 was given at 0 mg/kg, 20 mg/kg and 40 mg/kg via intraperitoneal injection twice a week for three weeks. […] The relative tumor volumes were calculated using the formula: a×(b^2)/2, for which a and b represented the longest and shortest diameters, respectively. During the drug treatment, the tumor volume and body weight were measured. Tumor samples were collected 4 days after final administration of the drug.

Data set [4] deals with recruitment of CtIP to DSB sites in IGROV1 cells. Nature of the data set: immunofluorescence assay of CtIP co-localization with γH2AX after micro-irradiation. Particulars: 1 μM, 30 minutes post irradiation. In kind it is cell-based, human. Here is the method:
H2AX (H2A histone family member X) becomes phosphorylated on serine 139 (wherein the phosphorylated form is then called […]) as a reaction on DNA double-strand breaks (DSB). And-1 regulates DSB end resection by establishing a condition or acting as a platform for recruitment of the tumor suppressor protein CtIP—a CtBP (carboxy-terminal binding protein)-interacting protein, to the DSB sites. […] In brief, IGROV1 cells were cultured on coverslips coated with 0.01% of poly-L-lysine. After treatment, the cells were then washed once with PBS, then pre-extracted with 0.5% Triton X-100 extraction buffer (10 mM PIPES pH 7.0, 100 mM NaCl, 3 mM MgCl2 and 300 mM sucrose) on ice for 5 minutes. After washing with PBS, cells were fixed with 4% paraformaldehyde in PBS for 15 minutes. Cells were then washed and incubated for 10 minutes in blocking buffer (PBS containing 3% BSA and 0.02% Tween-20) and subsequently incubated for 1 hour with a primary antibody at room temperature. Cells were washed three times with PBS-T (PBS containing 0.02% Tween-20) and then incubated with a secondary antibody (e.g., rabbit Alexa Fluor-594 and mouse Alexa Fluor-488). After washing with PBS-T, cells were mounted with Fluoromount G containing DAPI (4′,6-diamidino-2-phenylindole—a fluorescent stain that binds strongly to adenine-thymine-rich regions in DNA). Slides were then imaged using a Nikon Eclipse 80i microscope. […]

Consider `OB1OCc2cc(/C=C/c3ccc(Cl)c(Cl)c3)ccc21` [CH3], for which the And-1 protein levels result in data set [1] (5 μM for 48 hours, without MG132) is given as “reduced And-1 protein levels”. The IC50 in data set [1] (immunoblot, read-out: IC50 for inhibition of And-1 expression) amounted to 2080 nM. Further, the “cancer cell growth inhibition” value in data set [2] (0.01-100 μM, 60 tumor cell lines) is recorded as “inhibited cancer cell growth in all 60 tumor cell lines in a dose dependent manner”. This compound also returned a mean growth percentage in data set [2] (one dose assay, 10 μM, against 60 tumor cell lines) of 1.84%. In data set [3] (IGROV1 xenograft), the “And-1 expression in tumor (IHC)” value is recorded as “inhibited And-1 expression” and the “apoptosis in tumor (cleaved caspase-3 IHC)” value is given as “induced apoptosis in tumor”. For the same compound, the tumor growth result in data set [3] (IGROV1 xenograft, 20 or 40 mg/kg intraperitoneally, three weeks) is listed as “significantly reduced tumor growth”. Besides, the “systemic toxicity (body weight, H&E staining of heart, liver, kidney and lung)” value in data set [3] (mouse, in vivo) was “systemic toxicity or obvious side effects were not observed”. Further, the “recruitment of CtIP to DSB sites induced by micro-irradiation” value in data set [4] is on record as “significantly decreased”.
